From patent EP0572863A1, “CNS pyrazinoindoles” (priority 1992, dated 1993) come the findings set out here.

The target of one assay is T1, 5HT1A-Rezeptor (Homo sapiens, UniProt P08908).
T1 sequence (P08908 1-422): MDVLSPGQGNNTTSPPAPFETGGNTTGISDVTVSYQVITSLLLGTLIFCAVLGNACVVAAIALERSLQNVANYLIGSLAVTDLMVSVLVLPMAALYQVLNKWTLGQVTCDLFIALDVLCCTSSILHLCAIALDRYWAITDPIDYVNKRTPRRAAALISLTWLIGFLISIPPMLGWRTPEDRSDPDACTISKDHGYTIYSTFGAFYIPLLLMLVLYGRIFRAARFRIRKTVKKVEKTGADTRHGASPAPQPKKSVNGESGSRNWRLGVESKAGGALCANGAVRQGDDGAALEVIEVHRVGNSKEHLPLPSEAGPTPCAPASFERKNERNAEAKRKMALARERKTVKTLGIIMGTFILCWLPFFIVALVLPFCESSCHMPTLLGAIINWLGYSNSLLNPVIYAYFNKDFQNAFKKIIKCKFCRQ
The assay can be described thus: 3H-8-OH-DPAT binding test (test method a).

The next assay concerns the target 5HT1C-Rezeptor (Homo sapiens, UniProt P28335). The assay can be described thus: 3H-Mesulergin binding test (test method c).
Another assay has as its target 5HT₂-Rezeptor (Homo sapiens, UniProt P28223). The assay can be described thus: 3H-Metanserin binding test (test method d).
For a further assay, the target named is T2, 5HT1c-Rezeptoren (Rattus norvegicus, UniProt P08909).
T2 construct: from tissue; host or cells: living rat (whole animal)
T2 sequence (P08909 33-460): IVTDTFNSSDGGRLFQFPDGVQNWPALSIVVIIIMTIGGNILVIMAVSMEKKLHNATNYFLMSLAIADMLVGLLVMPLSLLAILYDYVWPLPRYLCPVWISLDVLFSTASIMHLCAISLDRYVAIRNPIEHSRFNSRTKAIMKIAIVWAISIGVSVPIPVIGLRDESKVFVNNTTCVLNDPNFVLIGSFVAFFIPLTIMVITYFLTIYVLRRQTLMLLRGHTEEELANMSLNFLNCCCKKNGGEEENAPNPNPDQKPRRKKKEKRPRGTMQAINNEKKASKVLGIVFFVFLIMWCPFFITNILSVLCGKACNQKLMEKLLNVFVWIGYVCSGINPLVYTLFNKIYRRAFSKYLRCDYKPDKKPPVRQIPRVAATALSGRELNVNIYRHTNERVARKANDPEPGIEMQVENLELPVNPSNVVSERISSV
Description: Antagonism of mCPP-induced penile erections. The conditions noted are these: mCPP-pretreated, dose inhibiting number of penile erections within 45 min by 50%. Format: in vivo, Ratte.

The next assay has as its target T3, 5HT₂-Rezeptoren (Rattus norvegicus, UniProt P14842).
T3 construct: from tissue; host or cells: living rat (whole animal)
Description: Antagonism of Quipazine-induced head shakes. The format is in vivo, Ratte. Conditions: Quipazine-pretreated, dose inhibiting number of head shakes within 45 min by 50%.

Where [1] appears, read: Testmethode a, concentration displacing 50% of receptor-bound ligand (3H-8-OH-DPAT), read-out: IC₅₀.
Setting [2] is: Testmethode c, concentration displacing 50% of receptor-bound ligand (3H-Mesulergin), read-out: IC₅₀.
Where [3] appears, read: Testmethode d, concentration displacing 50% of receptor-bound ligand (3H-Metanserin), read-out: IC₅₀.

Like-named read-outs stand apart in the source and are kept apart here.

Sequence of 5HT₂-Rezeptor (P28223 whole entry): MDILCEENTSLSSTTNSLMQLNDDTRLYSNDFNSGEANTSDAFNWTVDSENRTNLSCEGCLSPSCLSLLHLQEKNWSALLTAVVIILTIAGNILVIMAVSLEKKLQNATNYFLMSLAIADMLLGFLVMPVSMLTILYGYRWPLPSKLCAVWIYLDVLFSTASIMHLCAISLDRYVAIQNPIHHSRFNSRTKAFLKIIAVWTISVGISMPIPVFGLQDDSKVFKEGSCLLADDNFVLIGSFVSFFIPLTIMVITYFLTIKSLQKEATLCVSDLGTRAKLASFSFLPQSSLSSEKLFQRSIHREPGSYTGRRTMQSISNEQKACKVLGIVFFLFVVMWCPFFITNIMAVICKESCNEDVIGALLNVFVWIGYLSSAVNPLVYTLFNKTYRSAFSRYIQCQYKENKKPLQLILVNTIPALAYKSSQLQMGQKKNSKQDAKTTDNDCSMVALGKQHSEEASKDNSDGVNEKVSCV
Sequence of 5HT1C-Rezeptor (P28335 33-458): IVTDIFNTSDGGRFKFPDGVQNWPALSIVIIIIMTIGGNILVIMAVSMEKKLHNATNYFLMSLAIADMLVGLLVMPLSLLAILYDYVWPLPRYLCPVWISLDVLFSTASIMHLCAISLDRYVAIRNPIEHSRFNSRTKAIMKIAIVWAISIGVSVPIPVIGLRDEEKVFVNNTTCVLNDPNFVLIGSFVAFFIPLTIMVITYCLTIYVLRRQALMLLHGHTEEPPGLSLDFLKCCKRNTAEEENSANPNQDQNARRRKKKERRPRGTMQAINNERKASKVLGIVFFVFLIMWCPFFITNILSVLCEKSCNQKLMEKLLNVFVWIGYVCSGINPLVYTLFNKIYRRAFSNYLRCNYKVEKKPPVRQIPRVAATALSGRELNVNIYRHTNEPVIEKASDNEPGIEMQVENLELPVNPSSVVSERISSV
T3 sequence (P14842 whole entry): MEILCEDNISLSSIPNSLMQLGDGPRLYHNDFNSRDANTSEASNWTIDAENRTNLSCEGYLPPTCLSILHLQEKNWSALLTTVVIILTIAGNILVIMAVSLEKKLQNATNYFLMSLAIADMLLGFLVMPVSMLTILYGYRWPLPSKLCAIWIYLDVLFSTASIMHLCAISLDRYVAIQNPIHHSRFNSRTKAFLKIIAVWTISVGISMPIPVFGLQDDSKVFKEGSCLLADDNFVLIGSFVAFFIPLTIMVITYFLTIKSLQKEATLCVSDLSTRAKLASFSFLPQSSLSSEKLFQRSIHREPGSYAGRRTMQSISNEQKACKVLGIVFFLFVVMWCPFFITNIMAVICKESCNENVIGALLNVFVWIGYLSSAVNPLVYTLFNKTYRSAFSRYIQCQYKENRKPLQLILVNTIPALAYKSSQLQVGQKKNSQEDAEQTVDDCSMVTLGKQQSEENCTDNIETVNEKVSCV

`Clc1cccc(N2CCNCC2)c1` [mCPP, reference compound] had an IC50 at 5HT1A-Rezeptor of 227 nM.

Consider `COc1c2n(c3cccc(C)c13)CCNC2` [Substanz I, 1,2,3,4-Tetrahydro-10-methoxy-9-methyl-pyrazino[1,2-a]indol], for which the IC50 worked out at 106 nM at 5HT1A-Rezeptor (setting [1]), 219 nM at 5HT1C-Rezeptor (setting [2]) and 2270 nM at 5HT₂-Rezeptor (setting [3]). Further, the ID₅₀ is 2.7 mg/kg, s.c on 5HT1c-Rezeptoren and 3.0 mg/kg. s.c on 5HT₂-Rezeptoren.

Consider `Fc1ccc2c(cc3n2CCNC3)c1Cl` [Substanz N, 9-Chlor-8-fluor-1,2,3,4-tetrahydropyrazino[1,2-a]indol], for which the values for the IC50 on 5HT1A-Rezeptor, on 5HT1C-Rezeptor (setting [2]) and at 5HT₂-Rezeptor (setting [3]) were 964 nM, 57 nM and 902 nM, respectively. Moreover, the ID₅₀ on 5HT1c-Rezeptoren is recorded as 4.2 mg/kg, s.c; on 5HT₂-Rezeptoren, 5.2 mg/kg. s.c.

Regarding `COc1c2n(c3ccc(Br)cc13)CCNC2` [Substanz G, 8-Brom-1,2,3,4-tetrahydro-10-methoxy-pyrazino[1,2-a]indol], the IC50 at 5HT1A-Rezeptor is 298 nM; at 5HT1C-Rezeptor (setting [2]), 269 nM; on 5HT₂-Rezeptor (setting [3]), 2810 nM.

Turning to `COc1c2n(c3ccccc13)CCNC2` [Substanz A, 10-Methoxy-1,2,3,4-tetrahydropyrazino[1,2-a]-indol], the IC50 on 5HT1A-Rezeptor (setting [1]) is 687 nM.

As for `COc1c2n(c3ccc(Cl)cc13)CCNC2` [Substanz D, 8-Chlor-1,2,3,4-tetrahydro-10-methoxy-pyrazino[1,2-a]-indol], the IC50 on 5HT1A-Rezeptor was 657 nM; at 5HT1C-Rezeptor, 195 nM; at 5HT₂-Rezeptor (setting [3]) it was 3140 nM.

For `COc1ccc2[nH]cc(C3=CCNCC3)c2c1` [RU 24969, reference compound], the IC50 on 5HT1A-Rezeptor was 8 nM.

For `COc1ccccc1N1CCN(CCCCN2C(=O)c3ccccc3C2=O)CC1` [NAN-190, reference compound], the IC50 at 5HT1C-Rezeptor (setting [2]) is 1800 nM; at 5HT₂-Rezeptor, 581 nM.

On to `COc1c2n(c3cc(Cl)ccc13)CCNC2` [Substanz F, 7-Chlor-1,2,3,4-tetrahydro-10-methoxy-pyrazino[1,2-a]indol], for which the IC50 stood at 425 nM at 5HT1A-Rezeptor, 406 nM on 5HT1C-Rezeptor (setting [2]) and 9460 nM at 5HT₂-Rezeptor (setting [3]).

As for `Cc1nc2ccccn2c(=O)c1CCN1CCC(C(=O)c2ccc(F)cc2)CC1` [Pirenperon, reference compound], the IC50 is 2870 nM on 5HT1A-Rezeptor, 37 nM on 5HT1C-Rezeptor and 2.9 nM at 5HT₂-Rezeptor (setting [3]).

For the molecule `CSc1c2n(c3ccccc13)CCNC2` [Substanz K, 1,2,3,4-Tetrahydro-10-methylthiopyrazino[1,2-a]-indol], at 5HT1A-Rezeptor (setting [1]), the IC50 stood at 705 nM.

For `O=c1ccc2[nH]cc(C3=CCNCC3)c2[nH]1` [CP 93129, reference compound], the IC50 is 1620 nM on 5HT1A-Rezeptor and 29200 nM at 5HT₂-Rezeptor.

For `COc1c2n(c3cccc(C(F)(F)F)c13)CCNC2` [Substanz J, 9-Trifluormethyl-1,2,3,4-tetrahydro-10-methoxy-pyrazino[1,2-a]-indol], the values for the IC50 on 5HT1A-Rezeptor, at 5HT1C-Rezeptor (setting [2]) and on 5HT₂-Rezeptor (setting [3]) were 512 nM, 66 nM and 374 nM, respectively.

As for `COc1c2n(c3cccc(Br)c13)CCNC2` [Substanz E, 9-Brom-1,2,3,4-tetrahydro-10-methoxy-pyrazino[1,2-a]indol], the IC50 at 5HT1A-Rezeptor was 407 nM; at 5HT1C-Rezeptor, 83.8 nM; at 5HT₂-Rezeptor, 1020 nM. The ID₅₀ was 4.3 mg/kg, s.c on 5HT1c-Rezeptoren and 3.1 mg/kg. s.c at 5HT₂-Rezeptoren.

For the molecule `COc1c2n(c3cccc(F)c13)CCNC2` [Substanz C, 9-Fluor-1,2,3,4-tetrahydro-10-methoxy-pyrazino[1,2-a]indol], the figures for the IC50 on 5HT1A-Rezeptor, at 5HT1C-Rezeptor and on 5HT₂-Rezeptor were 1070 nM, 221 nM and 5170 nM, respectively. For the same molecule, the ID₅₀ on 5HT1c-Rezeptoren is 17.0 mg/kg, s.c.

With `Cc1nc2sccn2c(=O)c1CCN1CCC(=C(c2ccc(F)cc2)c2ccc(F)cc2)CC1` [Ritanserin, reference compound], the IC50 at 5HT1C-Rezeptor (setting [2]) was 37 nM.

Take `COc1c2n(c3c(Br)cccc13)CCNC2` [Substanz M, 6-Brom-1,2,3,4-tetrahydro-10-methoxy-pyrazino[1,2-a]indol]: the results for the IC50 at 5HT1A-Rezeptor, at 5HT1C-Rezeptor (setting [2]) and on 5HT₂-Rezeptor (setting [3]) were 690 nM, 923 nM and 3030 nM, respectively.

As for `COc1c2n(c3ccc(F)cc13)CCNC2` [Substanz B, 8-Fluor-1,2,3,4-tetrahydro-10-methoxy-pyrazino[1,2-a]-indol], the IC50 at 5HT1A-Rezeptor stood at 2370 nM; on 5HT1C-Rezeptor, 367 nM; on 5HT₂-Rezeptor, 9390 nM. Further, the ID₅₀ at 5HT1c-Rezeptoren is on record as 4.2 mg/kg, s.c.

As to `COc1c2n(c3ccc(F)c(Cl)c13)CCNC2` [Substanz H, 9-Chlor-8-fluor-1,2,3,4-tetrahydro-10-methoxy-pyrazino[1,2-a]indol], the IC50 was determined as 354 nM on 5HT1A-Rezeptor, 90.5 nM at 5HT1C-Rezeptor (setting [2]) and 1030 nM at 5HT₂-Rezeptor (setting [3]).

For `COc1c2n(c3cc(Cl)cc(Cl)c13)CCNC2` [Substanz L, 7,9-Dichlor-1,2,3,4-tetrahydro-10-methoxy-pyrazino[1,2-a]indol], the IC50 at 5HT1A-Rezeptor is 459 nM; at 5HT1C-Rezeptor (setting [2]), 251 nM; on 5HT₂-Rezeptor (setting [3]) it was 5850 nM.
